Read-outs that look alike come from different tables or passages of the source.
Test system: HCMV
Assay type: cell-based
Experimental: In example herpesvirus PRM assay methods shown herein, cell pellets were lysed in 2% SDS, 100 mM NaCl, 0.5 mM EDTA, 50 mM Tris, pH 8.2, and 50 μg of protein was reduced and alkylated with 25 mM TCEP and 50 mM CAM respectively for 20 min at 70° C. Proteins were then precipitated via methanol chloroform precipitation (Wessel & Flugg, Anal Biochem. 138(1):141-143, 1984), resuspended in 50 mM HEPES, pH 8.2 and digested overnight with trypsin (50:1 protein:enzyme w/w ratio). Digested peptides were desalted by SDB-RPS StageTip as previously described (Lum et al., Cell Syst., 7(6):[…], 2018; Greco et al., Methods Mol Biol 1410:39-63, 2016; Federspiel & Cristea, Methods Mol Biol., 1977:115-143, 2019).
Peptides (1.0 μg on column) were analyzed by LC-MS/MS using a Dionex Ultimate 3000 UHPLC coupled online to an EASYSpray ion source and a Q Exactive HF. Peptides were separated on an EASYSpray C18 column (75 μm×25 cm) heated to 50° C. using a linear gradient of 5% B to 32% B over 60 min at a flow rate of 250 nL/min and were ionized at 1.7 kv. Mobile phase A consisted of 0.1% FA in H2O and mobile phase B consisted of 0.1% FA, 2.9% H2O in ACN.
The PRM method was controlled by a peptide inclusion list with retention time windows of 6 min for selected precursor ions.
The PRM assay was developed and analyzed using the open-source software Skyline (Maclean et al., Bioinformatics 26(7):966-968, 2010). Summed area under the curve of 3-4 transitions per peptide was used for quantitation. Targeted peptides were normalized to host protein loading control peptides. Peptide values for each sample were scaled to the average of each peptide across all runs. The average of multiple peptides was used as the inferred value for the protein measurement when more than one peptide was quantified (Federspiel et al., PLoS Biol. 17(9):e3000437. Doi: 10.1371/journal.pbio.3000437). PRM quantitation data were graphed using the Python Seaborn and Matplotlib libraries.
MRC5 primary human fibroblasts (HFs) (ATCC CCL-171) were used as the model system for HSV-1 and HCMV infections and were cultured in complete growth medium (DMEM supplemented with 10% fetal bovine serum and 1% penicillin-streptomycin antibiotics) at 37° C. and 5% CO2. iSLK.219 cells harboring latent KSHV (a gift from Dr. Britt Glaunsinger, University of California, Berkeley) were grown in complete growth medium supplemented with 500 μg/ml hygromycin (ThermoFisher Scientific, 10687010) at 37° C. and 5% CO2. All cells were used for experiments within a maximum of 10 passages.
Wild type HSV-1 strain 17+ (a gift from Beate Sodeik, Hannover Medical School, Hannover, Germany) was propagated as previously described (Diner et al., 2015). Briefly, PO stocks were generated by electroporating pBAC-HSV-1 into U-2 OS cells. […] In a similar manner, wild type HCMV strain AD169 was produced from BAC electroporation into HFs and working stocks were propagated by infecting HFs at a low level. In both cases, cell-associated virus was released by sonication, combined with supernatant virus, then concentrated by ultracentrifugation (20,000 rpm, 2 hours, 4° C. with SW28 swinging bucket rotor [Beckman Coulter]) over a 10% ficoll (HSV-1) or 20% sorbitol (HCMV) cushion. Virus stock titers were determined by plaque assay for HSV-1 or tissue culture infectious dose (TCID50) for HCMV and infections were performed at a multiplicity of infection (MOI) of 3.
12 hours prior to virus infection or reactivation, cells were treated with either the small molecule drug or DMSO/PBS control at an equivalent volume. […] For infection cycles lasting longer than 24 hours, small molecule drugs were re-added to the cell culture medium every 24 hours. Upon collection, cells were rinsed with PBS, scraped into a microcentrifuge tube, pelleted by centrifugation, and rinsed again with PBS.

Nc1c(S(=O)(=O)c2ccccc2)c2nc3ccccc3nc2n1-c1ccc(F)cc1 [CAY10602]
UL117 (P16770) protein level (timepoint 96, L): 0.3951 | gH (P12824) protein level (timepoint 96, L): 0.2835 | gL (P16832) protein level (timepoint 96, L): 0.2623 | gM (P16733) protein level (timepoint 96, L): 0.2653 | gN (P16795) protein level (timepoint 96, L): 0.3 | IR10 (P16808) protein level (timepoint 96, LL): 0.2057 | IR12 (P16810) protein level (timepoint 96, LL): 0.691 | TRM3 (P16732) protein level (timepoint 96, LL): 0.1638 | TRX1 (P16783) protein level (timepoint 96, LL): 0.107 | TRX2 (P16728) protein level (timepoint 96, LL): 0.1423 | UL24 (P16760) protein level (timepoint 96, LL): 0.2363 | UL40 (P16780) protein level (timepoint 96, LL): 0.5384 | UL47 (P16784) protein level (timepoint 96, LL): 0.2331 | UL49 (P16786) protein level (timepoint 96, LL): 0.2651 | UL69 (P16749) protein level (timepoint 96, LL): 0.3508 | UL70 (P17149) protein level (timepoint 96, LL): 0.6104 | UL83 (P06725) protein level (timepoint 96, LL): 0.1002 | UL132 (P69338) protein level (timepoint 96, LL): 0.23 | US15 (P09718) protein level (timepoint 96, LL): 0.4576 | CVC2 (P16726) protein level (timepoint 120, DE): 0.2864 | DBP (P17147) protein level (timepoint 120, DE): 1.237 | HELI (P16736) protein level (timepoint 120, DE): 0.9924 | IR01 (P09710) protein level (timepoint 120, DE): 0.5584 | NEC1 (P16794) protein level (timepoint 120, DE): 0.2446 | NEC2 (P16791) protein level (timepoint 120, DE): 0.5195 | RIR1 (P16782) protein level (timepoint 120, DE): 0.4577 | TRM1 (P16724) protein level (timepoint 120, DE): 0.5809 | UL4 (P17146) protein level (timepoint 120, DE): 0.3635 | UL26 (P16762) protein level (timepoint 120, DE): 0.7327 | UL32 (P08318) protein level (timepoint 120, DE): 0.3617 | UL34 (P16812) protein level (timepoint 120, DE): 0.476 | UL35 (P16766) protein level (timepoint 120, DE): 0.2648 | UL38 (P16779) protein level (timepoint 120, DE): 0.7917 | UL44 (P16790) protein level (timepoint 120, DE): 0.3691 | UL48 (P16785) protein level (timepoint 120, DE): 0.6239 | UL54 (P08546) protein level (timepoint 120, DE): 1.076 | UL71 (P16823) protein level (timepoint 120, DE): 0.6451 | UL78 (P16751) protein level (timepoint 120, DE): 0.6099 | UL84 (P16727) protein level (timepoint 120, DE): 0.5628 | UL95 (P16801) protein level (timepoint 120, DE): 0.6017 | UL96 (P16787) protein level (timepoint 120, DE): 0.8056 | UL97 (P16788) protein level (timepoint 120, DE): 0.6064 | UL98 (P16789) protein level (timepoint 120, DE): 0.7315 | UL102 (P16827) protein level (timepoint 120, DE): 1.128 | UL104 (P16735) protein level (timepoint 120, DE): 0.5969 | UL112/UL113 (P17151) protein level (timepoint 120, DE): 0.6787 | UL114 (P16769) protein level (timepoint 120, DE): 0.9011 | UL119/UL118 (P16739) protein level (timepoint 120, DE): 0.9064 | UL128 (P16837) protein level (timepoint 120, DE): 0.537 | US8 (P09730) protein level (timepoint 120, DE): 0.7858 | US9 (P09729) protein level (timepoint 120, DE): 0.8529 | US12 (P09721) protein level (timepoint 120, DE): 0.4687 | US13 (P09720) protein level (timepoint 120, DE): 0.889 | US14 (P09719) protein level (timepoint 120, DE): 0.6652 | US18 (P69334) protein level (timepoint 120, DE): 1.01 | US22 (P09722) protein level (timepoint 120, DE): 0.7763 | US23 (P09701) protein level (timepoint 120, DE): 0.7758 | US24 (P09700) protein level (timepoint 120, DE): 0.8183 | US34 (P09709) protein level (timepoint 120, DE): 0.4168 | gB (P06473) protein level (timepoint 120, DE): 0.6582 | IRS1 (P09715) protein level (timepoint 120, IE): 0.8786 | TRS1 (P09695) protein level (timepoint 120, IE): 0.7933 | UL13 (P16755) protein level (timepoint 120, IE): 0.4263 | UL36 (P16767) protein level (timepoint 120, IE): 0.8112 | UL37 (P16778) protein level (timepoint 120, IE): 0.8715 | UL122 (P19893) protein level (timepoint 120, IE): 0.4332 | UL123 (P13202) protein level (timepoint 120, IE): 0.6795 | CVC1 (P16799) protein level (timepoint 120, L): 0.5173 | GO (P16750) protein level (timepoint 120, L): 0.4236 | IR11 (P16809) protein level (timepoint 120, L): 1.205 | MCP (P16729) protein level (timepoint 120, L): 0.4497 | SCP (Q7M6N6) protein level (timepoint 120, L): 0.3169 | TRM2 (P16792) protein level (timepoint 120, L): 0.4883 | UL22A (P16845) protein level (timepoint 120, L): 0.9462 | UL25 (P16761) protein level (timepoint 120, L): 0.5081 | UL29 (P16764) protein level (timepoint 120, L): 0.8148 | UL30 (P16765) protein level (timepoint 120, L): 0.4064 | UL31 (P16848) protein level (timepoint 120, L): 0.5275 | UL43 (P16781) protein level (timepoint 120, L): 0.2294 | UL52 (P16793) protein level (timepoint 120, L): 0.6161 | UL76 (P16725) protein level (timepoint 120, L): 0.366 | UL79 (P16752) protein level (timepoint 120, L): 0.3998 | UL80 (P16753) protein level (timepoint 120, L): 0.5912 | UL82 (P06726) protein level (timepoint 120, L): 0.5561 | UL87 (P16730) protein level (timepoint 120, L): 0.3281 | UL88 (P16731) protein level (timepoint 120, L): 0.6339 | UL94 (P16800) protein level (timepoint 120, L): 0.5803 | UL99 (P13200) protein level (timepoint 120, L): 0.4749 | UL103 (P16734) protein level (timepoint 120, L): 0.5208 | UL117 (P16770) protein level (timepoint 120, L): 0.5442 | gH (P12824) protein level (timepoint 120, L): 0.5849 | gL (P16832) protein level (timepoint 120, L): 0.5768 | gM (P16733) protein level (timepoint 120, L): 0.6508 | gN (P16795) protein level (timepoint 120, L): 0.6429 | DUT (P16824) protein level (timepoint 120, LL): 0.5447 | IR10 (P16808) protein level (timepoint 120, LL): 0.4495 | IR12 (P16810) protein level (timepoint 120, LL): 0.797 | TRM3 (P16732) protein level (timepoint 120, LL): 0.383 | TRX1 (P16783) protein level (timepoint 120, LL): 0.3398 | TRX2 (P16728) protein level (timepoint 120, LL): 0.4401 | UL24 (P16760) protein level (timepoint 120, LL): 0.5907 | UL40 (P16780) protein level (timepoint 120, LL): 0.5612 | UL47 (P16784) protein level (timepoint 120, LL): 0.5287 | UL49 (P16786) protein level (timepoint 120, LL): 0.5619 | UL69 (P16749) protein level (timepoint 120, LL): 0.6101 | UL70 (P17149) protein level (timepoint 120, LL): 0.846 | UL83 (P06725) protein level (timepoint 120, LL): 0.4091 | UL132 (P69338) protein level (timepoint 120, LL): 0.4011 | US15 (P09718) protein level (timepoint 120, LL): 0.6187
